# Experimental data reported in paper PMC11940343, “In Vitro and In Vivo Evaluation of the De Novo Designed Antimicrobial Peptide P6.2 Against a KPC-Producing P. aeruginosa Clinical Isolate” (Biomolecules, 2025).
# No end group written: not given here.
# Tests used:
# P. aeruginosa M13513 [1] = test: Bactericidal effect by killing kinetics (time-kill curve); format: cell-based, Pseudomonas aeruginosa; details: killing kinetics at 64 µg/mL of P6.2
# Experimental: The bactericidal activity was determined according to the CLSI recommendations. In short, the bactericidal activity of the antimicrobial agents on the microorganisms was evaluated using a time–kill curve. The Minimal Bactericidal Concentration (MBC) is the lowest drug concentration required to eliminate 99.9% of viable organisms (a 3-log reduction in CFU/mL compared to the control) after a set incubation period under defined conditions. This is the most common method for estimating bactericidal activity.
# The killing kinetics of an antimicrobial agent allow us to observe how the agent exerts its activity as a function of time, determining viable cells by counting colony-forming units at different time points. Normally, for commonly used antibiotics, this measurement is carried out over a 24-h period, since they reach their maximum activity during this period. However, for AMPs, these times are much shorter; in fact, these antimicrobials exert their maximum activity in just hours or minutes. For this reason, killing kinetics at MIC was carried out by measuring viable bacteria at short intervals over a period of three hours.
# P. aeruginosa M13513 [2] = test: Peptide stability at different temperatures, read out by broth microdilution MIC; format: physicochemical, Pseudomonas aeruginosa; parameters: unit not given beside the values; details: peptide in sterile deionized water, then broth microdilution vs P. aeruginosa M13513
# Experimental: To analyze the stability of the molecule, the peptide was exposed to different temperatures for varying durations. The conditions tested involved incubation at 37 °C for 24 h, at 60 °C for 2 h, and at 100 °C for 15 min. Each condition was set up in a microtube with the peptide dissolved in sterile deionized water. As a control, the peptide was dissolved immediately before testing without temperature incubation. Afterward, the broth microdilution assay was conducted to assess its antimicrobial effectiveness. Additionally, the stability of the peptide in serum was examined. Three microtubes were prepared, each containing sterile deionized water with FCBS (fetal calf bovine serum) 25% (v/v) and the antimicrobial peptide. Two of these samples were incubated at 37 °C for 24 h or 2 h, while the third sample was prepared just before testing without any temperature incubation. As controls, serum alone and peptide without serum were used. The antimicrobial activity was subsequently evaluated through the broth microdilution assay. In order to assess the stability of the AMP, P6.2 was incubated at different temperature conditions or with FBS (fetal bovine serum) for different time periods. The temperature exposures were overnight (ON) at 37 °C, 120 min at 60 °C, and 15 min at 100 °C. P6.2 was incubated with 25% FBS at 37 °C for 2 and 24 h before the experiment or directly at the moment of the experiment. Then, a microdilution assay was performed to test the antimicrobial activity.
substance,measurement,setting,value
GLLRKWGKKWKEFLRRVWK-NH2 [Peptide P6.2],time to 99.9% reduction in viable bacteria (bactericidal effect),P. aeruginosa M13513 [1],less than 45 min
same,MIC after temperature exposure,P. aeruginosa M13513 [2]; 37 °C ON (24 h),32/64
same,MIC after temperature exposure,P. aeruginosa M13513 [2]; 60 °C 120 min,32/64
same,MIC after temperature exposure,P. aeruginosa M13513 [2]; 100 °C 15 min,32/64
